In brackets after ≈: the same amount, converted by molar mass.
Experiments:
[1] = test system: androgen-dependent prostate cancer LNCaP cells; experiment: Neutral red uptake cell viability assay, LNCaP cells; format: cell-based; settings: Homo sapiens, 48 h; for viability at 50 µg/mL: 50 μg/mL, vs DMSO control; for IC50: neutral red uptake
Method: (§1) Figure 4 Concentration-response curves showing the effect of Ferula penninervis methanolic root extract against gastrointestinal cancer cells (A), prostate cancer cells (B), skin cancer cells (C) and non-cancer cells (D) and the effect of isolated sesquiterpene lactones against prostate cancer LNCaP cells (E) and prostate epithelial PNT2 cells (F). Cells were seeded in 96-well plates (3 × 10^3/well) and treated with increasing concentrations of extract (12.5–200 μg/mL) or sesquiterpene lactones (3.125–50 μg/mL); after 48 h, the cell viability was evaluated using neutral red uptake assay. Data are expressed as percentage change in viability in comparison to the vehicle (DMSO) treated control group. Each point represents the mean ± S.E.M. of three independent experiments performed in triplicates.
Androgen-dependent prostate cancer (derived from lymph node metastasis) LNCaP (ATCC® CRL-1740), androgen-insensitive prostate cancer (derived from brain metastasis) DU145 (ATCC® HTB-81), androgen-insensitive prostate cancer (derived from bone metastasis) PC3 (ATCC® CRL-1435) and prostate epithelial PNT2 (ECACC® 95012613) cell lines were kindly provided by Dr. Vera Knäuper, School of Dentistry, Cardiff University (Cardiff, UK), whereas human colorectal carcinoma Caco-2 (ATCC® HTB-37) cell line was provided by Dr. Konrad Szychowski (University of Information Technology and Management, Rzeszów, Poland). Human gastric cancer (derived from liver metastasis) N87 (ATCC® CRL-5822), human colorectal cancer HT-29 (ATCC® HTB-38), human malignant melanoma A375 (ATCC CRL-1619), human squamous cell cancer SCC-15 (ATCC® CRL-1623) cell lines, murine melanoma B16F10 (ATCC® CRL-6475) and human skin BJ fibroblast (ATCC® CRL-2522) cell lines were purchased from LGC Standards (Łomianki, Poland), whilst immortalized human keratinocyte HaCaT cell lines were bought from Cell Lines Service (CLS) GmbH (Eppelheim, Germany).
LNCaP, PNT2 and N87 cells were grown in RPMI-1640 medium; PC3 cells were cultured in Ham’s F12; DU145, Caco-2 and BJ cells were maintained in EMEM. SCC-15 cell line was grown in DMEM:F12, whilst B16F10, HaCaT and HT-29 cell lines were maintained in DMEM. All conditioned media were supplemented with 10% FBS for all cell lines, except for Caco-2 cells which were grown in EMEM supplemented with 20% FBS. The cells were cultured at 37 °C in a humidified atmosphere with 5% CO2.
(§2) Neutral red uptake (NRU) assay was performed as described by Repetto et al.. Briefly, cells were seeded in 96-well plates (3 × 10^3 cells/well) and grown overnight. The cells were then treated with increasing concentrations of F. penninervis crude extract (12.5–200 µg/mL) and isolated compounds (3.125–50 µg/mL) or the positive control 5-FU (1 µg/mL). The control cells were grown in appropriate culture medium containing equal volume of the used solvent (DMSO). After 48 h, the cells were incubated for 3 h with neutral red solution (33 µg/mL) in conditioned medium containing 1% FBS. […] The absorbance of the released neutral red was measured at λ = 540 nm using FilterMax F5 microplate reader and corrected by the absorbance at λ = 620 nm. The mean measured value for the lysate from control cells was set as 100% cellular viability and used to calculate the percentage of viable cells following extracts treatment.
(§3) All experiments were performed in triplicate and the results were expressed as mean ± standard error of mean (SEM). […]

B16F10 cells [2] = test system: B16F10 cells; set-up: method as in doi:10.1186/s13765-019-0468-7; settings: 3 and 6 μM; cited from earlier work
B16F10 cells [3] = settings: cited from earlier work
[4] = test system: αMSH-stimulated murine melanoma B16F10 cells; experiment: Melanin release in conditioned medium of αMSH-stimulated B16F10 cells; format: cell-based; settings: αMSH 10 nM, 72 h; for melanin release in the medium: 10 μg/mL
Method: (§4) Figure 5 Influence of Ferula penninervis root extract and isolated sesquiterpene lactones on melanin release in conditioned medium (A), melanin content in cell lysate (B) and cell viability (C) in α-MSH-stimulated murine melanoma B16F10 cells. B16F10 cells were seeded in 6-well plates (0.5 × 10^5/well) and treated with extract (100 μg/mL) or sesquiterpene lactones (10 μg/mL); melanin production was stimulated with α-MSH (10 nM). Kojic acid (100 μg/mL) was used as positive control. After 72 h, the melanin release/content and cell viability were assessed. Data are expressed as the percentage of melanin release/content in comparison with α-MSH stimulated control cells (α-MSH+) (A,B) or as percentage change in viability in comparison to the vehicle (DMSO) treated control group (C). Each point represents the mean ± S.E.M. of three independent experiments performed in triplicates; # p < 0.001 vs. non-stimulated control cells (αMSH-); ** p < 0.01; *** p < 0.001 vs. αMSH+ cells.
B16F10 cells were plated in 6-well plates (0.5 × 10^5 cells/well) and grown overnight. The cells were treated with F. penninervis crude extract (100 µg/mL), isolated compounds (10 µg/mL) or the positive control kojic acid (100 μg/mL). Melanin production was stimulated with α-MSH (10 nM). Following 72 h, the conditioned medium and cell pellets were collected. Cell pellets were dissolved in 1 N NaOH and incubated for 2 h at 80 °C. Conditioned media and cell lysates were then transferred to a 96-well plate and the absorbance was measured at λ = 405 nm using FilterMax F5 microplate reader. The content of protein in cell lysates was establish using Bradford assay. The melanin released in the conditioned medium and the melanin content in cell lysates (μg melanin/mg protein) were calculated with the help synthetic melanin calibration curves. The melanin release/content was expressed as the percentage of melanin release/content in comparison with α-MSH stimulated control cells without the tested samples.

[5] = test system: erythroleukemia K562 cells; set-up: method as in PMID 24320993; settings: cited from earlier work
MCF-7 cells = test system: MCF-7 cells; set-up: method as in PMID 24320993; settings: cited from earlier work
[6] = test system: αMSH-stimulated murine melanoma B16F10 cells; experiment: Melanin content in cell lysate of αMSH-stimulated B16F10 cells; format: cell-based; settings: 100 μg/mL, αMSH 10 nM, 72 h
Method: as §4, with “Each point represents the mean ± S.E.M. of three independent experiments performed in triplicates; # p < 0.001 vs. non-stimulated control cells (αMSH-); ** p < 0.01; *** p < 0.001 vs. αMSH+ cells.” left out
B16F10 cells were plated in 6-well plates (0.5 × 10^5 cells/well) and grown overnight. […] Conditioned media and cell lysates were then transferred to a 96-well plate and the absorbance was measured at λ = 405 nm using FilterMax F5 microplate reader. […] The melanin released in the conditioned medium and the melanin content in cell lysates (μg melanin/mg protein) were calculated with the help synthetic melanin calibration curves. The melanin release/content was expressed as the percentage of melanin release/content in comparison with α-MSH stimulated control cells without the tested samples.

[7] = test system: prostate epithelial PNT2 cells; experiment: Neutral red uptake cell viability assay, PNT2 cells; format: cell-based; settings: 48 h
Method: as §1, with “triplicates. […]” for “triplicates.”
Neutral red uptake (NRU) assay was performed as described by Repetto et al.. […] The absorbance of the released neutral red was measured at λ = 540 nm using FilterMax F5 microplate reader and corrected by the absorbance at λ = 620 nm. The mean measured value for the lysate from control cells was set as 100% cellular viability and used to calculate the percentage of viable cells following extracts treatment.
as §3

[8] = test system: αMSH-stimulated murine melanoma B16F10 cells; experiment: Neutral red uptake viability at 72 h in αMSH-stimulated B16F10 cells; format: cell-based; settings: extract 100 μg/mL, lactones 10 μg/mL, kojic acid 100 μg/mL, vs αMSH- cells
Method: To evaluate the effects of F. penninervis methanolic root extract and its isolated guaiane-type sesquiterpene lactones on the melanin synthesis and release, the melanin assay was carried out. For this purpose, the production of melanin in murine melanoma B16F10 cells was stimulated with αMSH. […] Furthermore, to exclude the possibility that the observed inhibitory effects on the melanin production might have resulted through a reduced number of viable cells, neutral red uptake assay at 72 h was performed (Figure 5C and Figure S17). […] To our knowledge, there are no previous studies reporting the melanin production inhibitory potential of Ferula genus or isolated constituents. Nevertheless, the anti-melanogenic effects of different phytochemicals were repeatedly evidenced in various cell-based assays.
as §4, §2

O=c1[nH]cc(F)c(=O)[nH]1 [5-FU, 5-Fluorouracil, reference compound]
viability at 5 µg/mL ([1]; positive control at 5 μg/mL): 50.6 ± 3.28%

COc1cc(/C=C/C(=O)N2CCC=CC2=O)cc(OC)c1OC [Piperlongumine]
effect on cell growth (B16F10 cells [2]): no inhibitory effects on the cell growth
total melanin production (B16F10 cells [3]; 3 and 6 μM): significantly reduced the total melanin production

CC=C(C)C(=O)OC1CC(C)=C2C(=O)C=C(C)C2C2OC(=O)C(C)(OC(=O)C(C)C)C12 (stereo not drawn) [daucoguaianolactone F, daucoguainolactone F]
melanin release in the medium [4]: inactive

C=C1C(=O)O[C@@H]2[C@H]1CC[C@]1(C)[C@H](OC(=O)/C(C)=C/C)C=CC(=C)[C@@H]21 [dehydrooopodin]
IC50 [5]: 5 µM
IC50 (MCF-7 cells): 15 µM

CC1=CC(=O)C2=C(C)C[C@H](OC(=O)C(C)C)[C@@H]3[C@@H](OC(=O)[C@@]3(C)OC(=O)C(C)C)[C@H]12 [ferupennin Q, 2-oxo-8α,11α-diisobutyroyloxy-5βH,6αH,7αH-gua-1(10),3-diene-6,12-olide]
melanin release in the medium [4]: inactive

O=c1cc(CO)occ1O [kojic acid, reference compound]
melanin release in the conditioned medium ([4]; 100 μg/mL): 35.88 ± 3.45 % of αMSH+ control cells
melanin content in the cell lysate [6]: but not the melanin content

C/C=C(/C)C(=O)O[C@H]1CC(C)=C2C(=O)C=C(C)[C@H]2[C@@H]2OC(=O)[C@@](C)(OC(C)=O)[C@@H]21 [laferin]
cell survival ([7]; 50 µg/mL (highest tested concentration)): 53.85 ± 1.71%
viability of B16F10 cells [8]: without influencing the viability of B16F10 cells
viability at 50 µg/mL [1]: 14.4 ± 1.69%
IC50 [1]: 23.3 µg/mL (≈ 57.8 µM)

C=C(C)C(=O)O[C@H]1CC(C)=C2C(=O)C=C(C)[C@H]2[C@@H]2OC(=O)[C@@](C)(OC(=O)C(C)C)[C@@H]21 [oferin]
viability of B16F10 cells [8]: without influencing the viability of B16F10 cells

C=C(C)C(=O)O[C@H]1CC(C)=C2C(=O)C=C(C)[C@H]2[C@@H]2OC(=O)[C@@](C)(OC(C)=O)[C@@H]21 [olgin]
effect on viability of PNT2 control cells ([7]; 3.125–50 μg/mL): did not significantly affect the viability
viability of B16F10 cells [8]: without influencing the viability of B16F10 cells
melanin release in the medium [4]: 40.67–65.48 % of αMSH+ control cells
viability at 50 µg/mL [1]: 43.1 ± 3.52%
IC50 [1]: 31 µg/mL (≈ 79.9 µM)

C=C(C)C(=O)O[C@H]1CC(C)=C2C(=O)C=C(C)[C@H]2[C@@H]2OC(=O)[C@@](C)(OC(=O)C(=C)C)[C@@H]21 [olgoferin]
viability of B16F10 cells [8]: without influencing the viability of B16F10 cells

C[C@@H]1O[C@@H](O[C@@H]2[C@@H](O)[C@H](O)[C@@H](CO)O[C@H]2c2c(O)cc(O)c3c(=O)cc(-c4ccc(O)cc4)oc23)[C@H](O)[C@H](O)[C@H]1O [vitexin-2ʺ-O-rhamnoside]
decrease of intracellular melanin production compared to untreated cells (B16F10 cells [3]; 5 μM): threefold
